Source: the PolyMetriX glass transition set
± gives the standard deviation of the reports.

glass transition temperature | Structure (SMILES)
52.00 °C | *O[Si](*)(C)CCCCCOc1ccc(/C=C/c2ccc(OC)cc2)cc1 (repeat unit)
239.00 °C | *c1ccc(Cc2ccc(N3C(=O)CC(Nc4ccc(Cc5ccc(NC6CC(=O)N(*)C6=O)cc5)cc4)C3=O)cc2)cc1 (repeat unit)
256.00 °C | *c1ccc(C(c2ccc(N3C(=O)c4ccc(Oc5ccc6ccc(Oc7ccc8c(c7)C(=O)N(*)C8=O)cc6c5)cc4C3=O)cc2)(C(F)(F)F)C(F)(F)F)cc1 (repeat unit)
44.00 °C | *Oc1ccc(CC(NC(=O)CCc2ccc(OC(=O)CCCCCCCCC(*)=O)cc2)C(=O)OCC)cc1 (repeat unit)
42.50 °C | *CCCCCCCCCCCCOc1ccc(N(c2ccccc2)c2ccc(-c3ccc(N(c4ccccc4)c4ccc(O*)cc4)cc3)cc2)cc1 (repeat unit)
80.00 °C | *C(=O)NCCCCCCNC(=O)c1ccc(*)nc1 (repeat unit)
263.50 °C | *c1ccc(Oc2ccc(C(C)(C)c3ccc(Oc4ccc(N5C(=O)C6CCC7C(=O)N(*)C(=O)C7C6C5=O)cc4)cc3)cc2)cc1 (repeat unit)
287.00 °C | *c1c(C)cc(C)c(N2C(=O)c3cccc(Oc4c(C)cc(Cc5cc(C)c(Oc6cccc7c6C(=O)N(*)C7=O)c(C)c5)cc4C)c3C2=O)c1C (repeat unit)
220.00 °C | *C(=O)OCCOC(=O)c1cccc(N2C(=O)c3ccc(*)cc3C2=O)c1 (repeat unit)
98.00 °C | *OC(=O)c1ccc(C(F)(F)C(F)(F)C(F)(F)c2ccc(C(*)=O)cc2)cc1 (repeat unit)
84.50 °C | *CC1CCC(COC(=O)c2ccc(C(=O)O*)cc2)CC1 (repeat unit)
136.00 °C | */C(C#N)=C/c1cc(/C=C(\C#N)c2ccc3c(c2)C(CCCCCCCC)(CCCCCCCC)c2cc(*)ccc2-3)cc(N(c2ccccc2)c2ccccc2)c1 (repeat unit)
-46.00 °C | *O[Si](*)(C)CCCOC(=O)c1cc(OC(=O)c2ccc(OCCOCCOCCOCCOCCOCCOC)cc2)ccc1OC(=O)c1ccc(OCCOCCOCCOCCOCCOCCOC)cc1 (repeat unit)
67.00 °C | *CCCS(=O)(=O)CCCS(=O)(=O)CCCOC(=O)c1cccc(C(=O)O*)c1 (repeat unit)
246.00 °C | *C(=O)c1ccc2c(c1)C(=O)N(c1ccc(Oc3cc4ccccc4cc3Oc3ccc(N4C(=O)c5ccc(*)cc5C4=O)cc3)cc1)C2=O (repeat unit)
44.00 °C | *C(=O)OCCCCCCCCCCCCCCCCCCCCCCOC(=O)c1ccc(N2C(=O)c3ccc(*)cc3C2=O)cc1 (repeat unit)
335.00 °C | *c1ccc2c(c1)C(=O)N(c1cc(N3C(=O)c4ccc(C(*)(C(F)(F)F)C(F)(F)F)cc4C3=O)ccc1C)C2=O (repeat unit)

glass transition temperature | Structure (SMILES)
170.00 °C | *CCN(CCN1C(=O)c2ccc(C(c3ccc4c(c3)C(=O)N(*)C4=O)(C(F)(F)F)C(F)(F)F)cc2C1=O)c1ccc(/N=N/c2ccc(C=O)cc2)cc1 (repeat unit)
285.2 ± 2.5 °C | *c1cccc(Oc2cccc(-n3c(=O)c4cc5c(=O)n(*)c(=O)c5cc4c3=O)c2)c1 (repeat unit)
77.00 °C | *Nc1ccc(*)cc1OCCCCCCCCCC (repeat unit)
203.50 °C | *CC(*)(C)C(=O)OCCCCc1ccc(/N=N/c2ccc(OC(F)(F)F)cc2)cc1 (repeat unit)
224.00 °C | *c1ccc(Oc2cccc(-c3cc(-c4ccccc4)cc(-c4cccc(Oc5ccc(N6C(=O)c7ccc(Oc8ccc9c(c8)C(=O)N(*)C9=O)cc7C6=O)cc5)c4)n3)c2)cc1 (repeat unit)
123 ± 0.6 °C | *Oc1ccc(C(CCC)c2ccc(OC(*)=O)cc2)cc1 (repeat unit) [Poly[1,1-butane bis(4-phenyl)carbonate] ]
116.00 °C | *c1cccc(OCCCCCCCCCCCCOc2cccc(N3C(=O)c4ccc(-c5cccc6c5C(=O)N(*)C6=O)cc4C3=O)c2)c1 (repeat unit)
91.00 °C | *CCCCCC(=O)Oc1ccc(Oc2ccc(OC(=O)CCCCCn3c(=O)c4cc5c(=O)n(*)c(=O)c5cc4c3=O)cc2)cc1 (repeat unit)
266.00 °C | *c1ccc(S(=O)(=O)c2ccc(-n3nccc3-c3ccc(-c4ccnn4*)cc3)cc2)cc1 (repeat unit)
180.00 °C | *Oc1cc(C(C)(C)c2ccccc2)c(OC(=O)c2cccc(C(*)=O)c2)cc1C(C)(C)c1ccccc1 (repeat unit)
45.00 °C | *CC(*)(CC(=O)OCCc1ccccc1)C(=O)OCCc1ccccc1 (repeat unit)
40.00 °C | *Oc1ccc(CC(NC(=O)CCc2ccc(OC(=O)CCC(*)=O)cc2)C(=O)OCCCCCCCCCCCC)cc1 (repeat unit)
253.00 °C | *c1cccc(C(=O)Nc2ccc(Oc3cccc(Oc4ccc(NC(=O)c5cccc(N6C(=O)c7ccc(-c8cccc9c8C(=O)N(*)C9=O)cc7C6=O)c5)cc4)c3)cc2)c1 (repeat unit)
50.00 °C | *CC(*)c1ccc(C(=O)CCCCCCC)cc1 (repeat unit)
221.00 °C | *c1ccc(Oc2cccc(N3C(=O)c4ccc(Oc5ccc6ccc(Oc7ccc8c(c7)C(=O)N(*)C8=O)cc6c5)cc4C3=O)c2)cc1 (repeat unit)
85.00 °C | *Oc1ccc(C(C)(C)c2ccc(OC(=O)c3cccc(Oc4cccc(C(*)=O)c4)c3)cc2)cc1 (repeat unit)
95.00 °C | *CC(C)(CCC)COC(=O)c1ccc(-c2ccc(C(=O)O*)cc2)cc1 (repeat unit)

Continued, molecule first:

Structure (SMILES) | glass transition temperature
*CCCCOc1ccc(/C=C2\CC/C(=C\c3ccc(OCCCCOP(=O)(O*)OC)c(OC)c3)C2=O)cc1OC (repeat unit) | 75.00 °C
*Oc1ccc(C2(c3ccc(Oc4ccc(C(=O)c5ccccc5-c5ccccc5C(=O)c5ccc(*)cc5)cc4)cc3)c3ccccc3-c3ccccc32)cc1 (repeat unit) | 229.00 °C
*CC(*)(C)C(=O)OCC(C)(C)C1OCC(C)(C)CO1 (repeat unit) | 118.00 °C
*CC(*)c1ccc(C(=O)CCN2CCCCC2)cc1 (repeat unit) | 38.00 °C
*O[Si](C)(Oc1ccc(C(C)(C)c2ccc(*)cc2)cc1)c1ccccc1 (repeat unit) | 58.00 °C
*OP(=O)(Oc1ccc(Cl)cc1)Oc1ccc(C(C)(C)c2ccc(*)cc2)cc1 (repeat unit) | 71.00 °C
*Cc1ccccc1[Si](*)(C)C (repeat unit) | 48.00 °C
*Oc1ccc(S(=O)(=O)c2ccc(Oc3ccc(/C=N/N=C/c4ccc(*)cc4)cc3)cc2)cc1 (repeat unit) | 151.00 °C
*CC(*)C(F)(F)F (repeat unit) [Poly(3,3,3-trifluoropropylene) ] | 27 ± 2.3 °C
*Oc1ccc(S(=O)(=O)c2ccc(Oc3ccc(C4(c5ccc(Oc6ccc(S(=O)(=O)c7ccc(Oc8ccc(/C=C9\CC/C(=C\c%10ccc(*)cc%10)C9=O)cc8)cc7)cc6)cc5)CCCC4)cc3)cc2)cc1 (repeat unit) | 240.00 °C
*SC(*)(F)F (repeat unit) | -118.00 °C
*C[Si](*)(CCCC)CCCC (repeat unit) | -30.00 °C
*c1ccc(Oc2ccc(-c3cnc4cc(Oc5ccc6nc(*)cnc6c5)ccc4n3)cc2)cc1 (repeat unit) | 382.00 °C
*CC(*)C(=O)OCC(F)(F)C(F)(F)C(F)(F)C(F)(F)C(F)(F)F (repeat unit) | -39.00 °C
*CCN(*)C(=O)c1c(F)c(F)c(F)c(F)c1F (repeat unit) | 136.00 °C
*C1C(=O)N(c2ccccc2C(=O)OCC)C(=O)C1* (repeat unit) | 230.00 °C
*CC(COC(C)C)O* (repeat unit) | -67.00 °C

Structure (SMILES) | glass transition temperature
*CC(O)CN(*)c1ccc(/N=N/c2ccc([N+](=O)[O-])cc2C)cc1 (repeat unit) | 156.00 °C
*C/C=C/COC(=O)C(Cc1ccccc1)NC(=O)/C=C/C(=O)NC(Cc1ccccc1)C(=O)O* (repeat unit) | 109.00 °C
*c1ccc(Oc2ccc(C(C)(C)c3ccc(Oc4ccc(N5C(=O)C6CCC(C7CCC8C(=O)N(*)C(=O)C8C7)CC6C5=O)cc4)cc3)cc2)cc1 (repeat unit) | 225.00 °C
*O[Si](*)(C)CCCC(=O)O (repeat unit) | -29.00 °C
*Oc1ccc(Oc2ccc(S(=O)(=O)c3ccc(-c4ccc(S(=O)(=O)c5ccc(*)cc5)cc4)cc3)cc2)cc1 (repeat unit) | 251.00 °C
*CC(*)(C)C(=O)OCc1ccco1 (repeat unit) | 111.00 °C
*/C=C/C(C)C(*)C(=O)OCCCN(C)c1ccc(N(C)C)cc1 (repeat unit) | 11.50 °C
*Oc1ccc(/N=N/c2ccc(S(=O)(=O)c3ccc(/N=N/c4ccc(OC(=O)c5ccc(/N=N/c6ccc(C(*)=O)cc6)cc5)cc4)cc3[N+](=O)[O-])c([N+](=O)[O-])c2)cc1 (repeat unit) | 150.00 °C
*CC(*)OC(=O)c1cccnc1 (repeat unit) | 86.50 °C
*Oc1ccc(C(C)(C)c2ccc(OC(=O)Nc3cccc(P(=O)(c4ccccc4)c4cccc(NC(*)=O)c4)c3)cc2)cc1 (repeat unit) | 62.00 °C
*/C=C(\F)C(F)(F)C* (repeat unit) | -35.00 °C
*c1ccc(Oc2ccc(C(C)(C)c3ccc(Oc4ccc(-c5nnc(*)n5-c5cccc(C(F)(F)F)c5)cc4)cc3)cc2)cc1 (repeat unit) | 190.00 °C
*c1ccc(Oc2ccc(C3(c4ccc(Oc5ccc(N6C(=O)c7ccc(Oc8c(C)cc(C(C)(C)c9cc(C)c(Oc%10ccc%11c(c%10)C(=O)N(*)C%11=O)c(C)c9)cc8C)cc7C6=O)cc5)cc4)C4CC5CC(C4)CC3C5)cc2)cc1 (repeat unit) | 282.00 °C
*OC(=O)OCCOCCOC(=O)OC1COC2C(*)COC12 (repeat unit) | 46.50 °C
*CC(*)c1cccc(O)c1 (repeat unit) | 169.00 °C
*C(*)C(=O)OCC (repeat unit) | 13.50 °C
